Patent publication US6737383B1, “Herbicidal oxadiazolidines” (priority 1999, dated 2004)

Tests used:
blackgrass = test: Test B pre/postemergence blackgrass; assay type: in vivo, Alopecurus myosuroides
Outline: (§1)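 Herbicidal effect was estimated by eye on a ten-point control scale after plants spent twelve to sixteen days in a greenhouse following soil or foliar treatment. Foliar sprays targeted plants at one to four leaves; all doses were formulated in a non-phytotoxic solvent with surfactant.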

surinam grass = test: Test B pre/postemergence surinam grass; assay type: in vivo, Brachiaria decumbens
Outline: as §1

cocklebur = test: Test B pre/postemergence cocklebur; assay type: in vivo, Xanthium strumarium
Outline: as §1

corn = test: Test B pre/postemergence corn; assay type: in vivo, Zea mays
Outline: as §1

crabgrass = test: Test B pre/postemergence crabgrass; assay type: in vivo, Digitaria sanguinalis
Outline: as §1

giant foxtail = test: Test B pre/postemergence giant foxtail; assay type: in vivo, Setaria faberii
Outline: as §1

morningglory = test: Test B pre/postemergence morningglory; assay type: in vivo, Ipomoea hederacea
Outline: as §1

rape = test: Test B pre/postemergence rape; assay type: in vivo, Brassica napus
Outline: as §1

soybean = test: Test B pre/postemergence soybean; assay type: in vivo, Glycine max
Outline: as §1

sugar beet = test: Test B pre/postemergence sugar beet; assay type: in vivo, Beta vulgaris
Outline: as §1

velvetleaf = test: Test B pre/postemergence velvetleaf; assay type: in vivo, Abutilon theophrasti
Outline: as §1

wheat = test: Test B pre/postemergence wheat; assay type: in vivo, Triticum aestivum
Outline: as §1

wild oat = test: Test B pre/postemergence wild oat; assay type: in vivo, Avena fatua
Outline: as §1

purple nutsedge = test: Test B pre/postemergence purple nutsedge; assay type: in vivo, Cyperus rotundus
Outline: as §1

smallflower flatsedge = test: Test B flood test smallflower flatsedge; assay type: in vivo, Cyperus difformis
Outline: (§2)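 Read-out is a visual response score from 0 (no effect) to 10 (complete control), assigned by comparison with untreated controls. Treatment was applied at the 2-leaf stage, and plants stayed in the greenhouse for twelve to sixteen days before scoring.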

duck salad = test: Test B flood test duck salad; assay type: in vivo, Heteranthera limosa
Outline: as §2

[1] = Postemergence, Rate 125 g/ha, scale of 0 to 10 where 0 is no effect and 10 is complete control
[2] = Preemergence, Rate 62 g/ha, scale of 0 to 10 where 0 is no effect and 10 is complete control
[3] = Preemergence, Rate 125 g/ha, 0 is no effect, 10 is complete control
[4] = Preemergence, Rate 250 g/ha, scale 0 to 10, 0 is no effect, 10 is complete control
[5] = Preemergence, Rate 500 g/ha, scale 0 to 10 (0 no effect, 10 complete control)
[6] = Rate 62 g/ha, Postemergence, scale of 0 to 10 where 0 is no effect and 10 is complete control
[7] = Rate 250 g/ha, Postemergence, scale 0 to 10, 0 is no effect, 10 is complete control
[8] = Rate 500 g/ha, Postemergence, scale 0 to 10
[9] = Postemergence (flood test species), Rate 125 g/ha, scale of 0 to 10 where 0 is no effect and 10 is complete control
[10] = Rate 62 g/ha, Postemergence section, flood test species, scale of 0 to 10 where 0 is no effect and 10 is complete control
[11] = Rate 250 g/ha, Postemergence (flood test), scale 0 to 10, 0 is no effect, 10 is complete control
[12] = Rate 500 g/ha, listed under Postemergence (flood test species), scale 0 to 10

## CC(C)N(C(=O)n1oc(=O)[nH]c1=O)c1ccc(F)cc1 [Compound 164]
blackgrass; [1]
  Blackgrass plant response rating: 0
blackgrass; [2]
  Blackgrass plant response rating: 0
blackgrass; [3]
  Blackgrass plant response rating (0 to 10 scale): 0
blackgrass; [4]
  Blackgrass plant response rating: 0
blackgrass; [5]
  Blackgrass plant response rating: 0
blackgrass; [6]
  Blackgrass plant response rating: 0
blackgrass; [7]
  Plant response rating, Blackgrass: 0
blackgrass; [8]
  Blackgrass plant response rating: 0
Surinam grass; [1]
  B. signalgrass plant response rating: 0
Surinam grass; [2]
  B. signalgrass plant response rating: 0
Surinam grass; [3]
  B. signalgrass plant response rating (0 to 10 scale): 0
Surinam grass; [4]
  B. signalgrass plant response rating: 0
Surinam grass; [5]
  B. signalgrass plant response rating: 0
Surinam grass; [6]
  B. signalgrass plant response rating: 0
Surinam grass; [7]
  Plant response rating, B. signalgrass: 0
Surinam grass; Rate 500 g/ha, Postemergence, scale 0 to 10, 0 no effect, 10 complete control
  B. signalgrass plant response rating: 0
cocklebur; [1]
  Cocklebur plant response rating: 0
cocklebur; [2]
  Cocklebur plant response rating: 0
cocklebur; [3]
  Cocklebur plant response rating (0 to 10 scale): 0
cocklebur; [4]
  Cocklebur plant response rating: 0
cocklebur; [5]
  Cocklebur plant response rating: 0
cocklebur; [6]
  Cocklebur plant response rating: 0
cocklebur; [7]
  Plant response rating, Cocklebur: 0
cocklebur; [8]
  Cocklebur plant response rating: 0
corn; [1]
  Corn plant response rating: 0
corn; [2]
  Corn plant response rating: 0
corn; [3]
  Corn plant response rating (0 to 10 scale): 0
corn; [4]
  Corn plant response rating: 0
corn; [5]
  Corn plant response rating: 0
corn; [6]
  Corn plant response rating: 0
corn; [7]
  Plant response rating, Corn: 0
corn; [8]
  Corn plant response rating: 0
crabgrass; [1]
  Crabgrass plant response rating: 0
crabgrass; [2]
  Crabgrass plant response rating: 0
crabgrass; [3]
  Crabgrass plant response rating (0 to 10 scale): 0
crabgrass; [4]
  Crabgrass plant response rating: 0
crabgrass; [5]
  Crabgrass plant response rating: 4
crabgrass; [6]
  Crabgrass plant response rating: 0
crabgrass; [7]
  Plant response rating, Crabgrass: 2
crabgrass; [8]
  Crabgrass plant response rating: 9
Giant foxtail; [1]
  Giant foxtail plant response rating: 0
Giant foxtail; [2]
  Giant foxtail plant response rating: 0
Giant foxtail; [3]
  Giant foxtail plant response rating (0 to 10 scale): 0
Giant foxtail; [4]
  Giant foxtail plant response rating: 0
Giant foxtail; [5]
  Giant foxtail plant response rating: 2
Giant foxtail; [6]
  Giant foxtail plant response rating: 0
Giant foxtail; [7]
  Plant response rating, Giant foxtail: 0
Giant foxtail; [8]
  Giant foxtail plant response rating: 7
morningglory; [1]
  Morningglory plant response rating: 0
morningglory; [2]
  Morningglory plant response rating: 0
morningglory; [3]
  Morningglory plant response rating (0 to 10 scale): 0
morningglory; [4]
  Morningglory plant response rating: 0
morningglory; [5]
  Morningglory plant response rating: 0
morningglory; [6]
  Morningglory plant response rating: 0
morningglory; [7]
  Plant response rating, Morningglory: 0
morningglory; [8]
  Morningglory plant response rating: 2
rape; [1]
  Rape plant response rating: 0
rape; [2]
  Rape plant response rating: 0
rape; [3]
  Rape plant response rating (0 to 10 scale): 0
rape; [4]
  Rape plant response rating: 0
rape; [5]
  Rape plant response rating: 0
rape; [6]
  Rape plant response rating: 0
rape; [7]
  Plant response rating, Rape: 0
rape; [8]
  Rape plant response rating: 0
soybean; [1]
  Soybean plant response rating: 1
soybean; [2]
  Soybean plant response rating: 0
soybean; [3]
  Soybean plant response rating (0 to 10 scale): 0
soybean; [4]
  Soybean plant response rating: 0
soybean; [5]
  Soybean plant response rating: 0
soybean; [6]
  Soybean plant response rating: 0
soybean; [7]
  Plant response rating, Soybean: 2
soybean; [8]
  Soybean plant response rating: 2
Sugar beet; [1]
  Sugarbeets plant response rating: 0
Sugar beet; [2]
  Sugarbeets plant response rating: 0
Sugar beet; [3]
  Sugarbeets plant response rating (0 to 10 scale): 0
Sugar beet; [4]
  Sugarbeets plant response rating: 0
Sugar beet; [5]
  Sugarbeets plant response rating: 0
Sugar beet; [6]
  Sugarbeets plant response rating: 0
Sugar beet; [7]
  Plant response rating, Sugarbeets: 0
Sugar beet; [8]
  Sugarbeets plant response rating: 0
velvetleaf; [2]
  Velvetleaf plant response rating: 0
velvetleaf; [3]
  Velvetleaf plant response rating (0 to 10 scale): 0
velvetleaf; [4]
  Velvetleaf plant response rating: 0
velvetleaf; [5]
  Velvetleaf plant response rating: 0
velvetleaf; [7]
  Plant response rating, Velvetleaf: 0
velvetleaf; [8]
  Velvetleaf plant response rating: 0
wheat; [2]
  Wheat plant response rating: 0
wheat; [3]
  Wheat plant response rating (0 to 10 scale): 0
wheat; [4]
  Wheat plant response rating: 0
wheat; [5]
  Wheat plant response rating: 0
wheat; [7]
  Plant response rating, Wheat: 0
wheat; [8]
  Wheat plant response rating: 0
Wild oat; [2]
  Wild oats plant response rating: 0
Wild oat; [3]
  Wild oats plant response rating (0 to 10 scale): 0
Wild oat; [4]
  Wild oats plant response rating: 0
Wild oat; [5]
  Wild oats plant response rating: 0
Wild oat; [7]
  Plant response rating, Wild oats: 0
Wild oat; [8]
  Wild oats plant response rating: 0
Purple nutsedge; [1]
  Nutsedge plant response rating: 0
Purple nutsedge; [2]
  Nutsedge plant response rating: 0
Purple nutsedge; [3]
  Nutsedge plant response rating (0 to 10 scale): 0
Purple nutsedge; [4]
  Nutsedge plant response rating: 0
Purple nutsedge; [5]
  Nutsedge plant response rating: 0
Purple nutsedge; [6]
  Nutsedge plant response rating: 0
Purple nutsedge; [7]
  Plant response rating, Nutsedge: 0
Purple nutsedge; [8]
  Nutsedge plant response rating: 0
Smallflower flatsedge; [9]
  S. Flatsedge plant response rating: 0
Smallflower flatsedge; [10]
  S. Flatsedge plant response rating: 0
Smallflower flatsedge; [11]
  Plant response rating, S. Flatsedge: 0
Smallflower flatsedge; [12]
  S. Flatsedge plant response rating: 0
Duck salad; [9]
  Ducksalad plant response rating: 0
Duck salad; [10]
  Ducksalad plant response rating: 0
Duck salad; [11]
  Plant response rating, Ducksalad: 0
Duck salad; [12]
  Ducksalad plant response rating: 0
